Reference: PubChem BioAssay AID2060337 (Molecular Pharmacology Branch, DTP, NCI, 2025)

Test system: 832693-133-R-J1-PDC multi-cell spheroids, viability
Experiment: Anticancer human tumor 832693-133-R-J1-PDC patient-derived head and neck squamous carcinoma cell line growth inhibition [IpAb]
Conditions: for IC50: curve of first compound; for viability, T/C: stronger effect = lower value
Excerpt: Combinatorial screen of targeted agents with ipatasertib and abemaciclib in multi-cell type tumor spheroids
A high-throughput screen of multi-cell type tumor spheroids was designed to identify active combinations of targeted small molecules and ipatasertib or abemaciclib. Complex spheroids include a stromal component modeled by human endothelial cells (HUVEC) and fibroblasts modeled by human mesenchymal stem cells (MSCs). The concentration ranges selected for each drug and investigational agent were based upon clinically achievable concentrations if the clinical Cmax of the agent was known.
Compounds. The drugs and investigational agents: ipatasertib (NSC767898), abemaciclib(NSC768073), selumetinib (NSC741078), trametinib (758246), adavosertib (NSC754352), everolimus (NSC733504), sapanisertib (NSC764658), vemurafenib (NSC761431), venetoclax (NSC766270), copanlisib (NSC809693), apelisib (NSC765974), palbociblib (NSC758247), vemurafenib (NSC761431), dabrafenib (NSC764134), ravoxertinib (NSC781343), BMS-387032 (NSC767048), sotorasib (NSC818433), talazoparib (NSC767125) and afursertib (NSC778305), were obtained from the National Cancer Institute (NCI) Developmental Therapeutics Program Chemical Repository. The FDA-approved anticancer drug set is available from the NCI Developmental Therapeutics Program. […] The stock solutions were prepared in dimethyl sulfoxide (DMSO, Sigma-Aldrich, St. Louis, MO, cat. D2650) at 800-fold the tested concentration and stored at -70 degrees C prior to their use. All drugs and investigational agents were tested over a range starting from a high concentration at or near the clinical Cmax and decreasing in half-log increments. If the clinical Cmax for an agent had not been determined, the highest concentration tested was 10 microM.
NCI60 Cell Culture. NCI60 cell lines were obtained from the NCI Developmental Therapeutics Program Tumor Repository. For each lot of cells, the Repository performed Applied Biosystems AmpFLSTR Identifiler testing with PCR amplification to confirm consistency with the published Identifier STR profile for each cell line. Cells were kept in continuous culture for no more than 20 passages. The optimal seeding densities for each of the cell lines at each time point assessed were determined prior to performing the concentration response studies. Briefly, the NCI60 human tumor lines were grown as monolayers in RPMI 1640 medium supplemented with 10% FBS and 2 mmol/L L-glutamine.
An additional 9 lines were from the NCI60 cell line panel including MDA-MB-231 breast carcinoma, MDA-MB-468 breast carcinoma, MCF7 breast carcinoma, Hs578T breast carcinoma, MALME-3M melanoma, SK-MEL-2 melanoma, SK-OV-3 ovarian carcinoma, DU-145 prostate carcinoma, PC-3 prostate carcinoma, all cell lines along with major genetic alterations are listed on Table 2. Pooled donor human umbilical vein endothelial cells (HUVEC, Lonza, cat. CC-2519) and human mesenchymal stem cells (hMSC, Lonza, cat. PT-2501) were purchased from Lonza (Walkersville, MD).
PDMR cell lines were grown in complete medium (DC medium): Dulbecco's modified Eagle's medium (DMEM)/F12 supplemented with 5% fetal bovine serum (FBS), 2 mM L-glutamine, 100 U/mL penicillin and 100 µg/ml streptomycin, 0.4 µg/ml hydrocortisone, 10 ng/ml epidermal growth factor (EGF) recombinant human protein, 24 µg/mL adenine, and 0.1 mg/mL primocin. During culture from frozen stock vials, PDMR cells were cultured in the same medium containing 10 µM Y-27632 (see Table 3). The PDCs were cultured in complete DMEM/F12 media without 10 microM Y-27632 dihydrochloride for at least two passages prior to the screen. The pooled donor HUVEC and hMSC were cultured in endothelial cell growth medium 2 (PromoCell, Heidelberg, Germany, cat. C-22011) and mesenchymal stem cell growth medium 2 (PromoCell, cat. C-28009), respectively. For all experiments, HUVEC and hMSC were used at passages </=5.
[…]

[1] = second compound 0.1 µM, first compound 0.0316 µM
[2] = second compound 0.1 µM, first compound 0.1 µM
[3] = second compound 0.316 µM, first compound 0.0316 µM
[4] = second compound 0.316 µM, first compound 0.1 µM
[5] = second compound 1 µM, first compound 0.0316 µM
[6] = second compound 1 µM, first compound 0.1 µM
[7] = second compound 3.16 µM, first compound 0.0316 µM
[8] = second compound 3.16 µM, first compound 0.1 µM
[9] = second compound 10 µM, first compound 0.0316 µM
[10] = second compound 10 µM, first compound 0.1 µM
[11] = second compound 0.1 µM, first compound 0.316 µM
[12] = second compound 0.1 µM, first compound 1 µM
[13] = second compound 0.1 µM, first compound 3.16 µM
[14] = second compound 0.1 µM, first compound 10 µM
[15] = second compound 0.316 µM, first compound 0.316 µM
[16] = second compound 0.316 µM, first compound 1 µM
[17] = second compound 0.316 µM, first compound 3.16 µM
[18] = second compound 0.316 µM, first compound 10 µM
[19] = second compound 1 µM, first compound 0.316 µM
[20] = second compound 1 µM, first compound 1 µM
[21] = second compound 1 µM, first compound 3.16 µM
[22] = second compound 1 µM, first compound 10 µM
[23] = second compound 3.16 µM, first compound 0.316 µM
[24] = second compound 3.16 µM, first compound 1 µM
[25] = second compound 3.16 µM, first compound 3.16 µM
[26] = second compound 3.16 µM, first compound 10 µM
[27] = second compound 10 µM, first compound 0.316 µM
[28] = second compound 10 µM, first compound 1 µM
[29] = second compound 10 µM, first compound 3.16 µM
[30] = second compound 10 µM, first compound 10 µM
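Note: spheroids exposed to the drugs for one week before the viability readout.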
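Throughout, for viability, T/C: 100% = DMSO vehicle control wells.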

Compound | IC50 (second compound 0.1 µM) [µM] | IC50 (second compound 0.316 µM) [µM] | IC50 (second compound 1 µM) [µM] | IC50 (second compound 3.16 µM) [µM] | IC50 (second compound 10 µM) [µM] | viability, T/C [1] [%] | viability, T/C [2] [%] | viability, T/C [3] [%] | viability, T/C [4] [%] | viability, T/C [5] [%] | viability, T/C [6] [%] | viability, T/C [7] [%] | viability, T/C [8] [%] | viability, T/C [9] [%] | viability, T/C [10] [%] | viability, T/C [11] [%] | viability, T/C [12] [%] | viability, T/C [13] [%] | viability, T/C [14] [%] | viability, T/C [15] [%] | other results
CC(C)n1nc(-c2ccc3oc(N)nc3c2)c2c(N)ncnc21 + CC(C)NCC(C(=O)N1CCN(c2ncnc3c2C(C)CC3O)CC1)c1ccc(Cl)cc1 | 0.0789 | > 0.1 | > 0.1 | > 0.1 | > 0.1 | 61 | 47.7 | 81 | 52.2 | 71.2 | 56.7 | 66.1 | 63.9 | 53 | 51.5 |  |  |  |  |  | viability, T/C (second compound 0.1 µM, first compound 0.000316 µM): 88.9%; viability, T/C (second compound 0.1 µM, first compound 0.001 µM): 90.7%; viability, T/C (second compound 0.1 µM, first compound 0.00316 µM): 82.2%; viability, T/C (second compound 0.1 µM, first compound 0.01 µM): 69.3%; viability, T/C (second compound 0.316 µM, first compound 0.000316 µM): 67.5%; viability, T/C (second compound 0.316 µM, first compound 0.001 µM): 73.5%; viability, T/C (second compound 0.316 µM, first compound 0.00316 µM): 75.5%; viability, T/C (second compound 0.316 µM, first compound 0.01 µM): 88.4%; viability, T/C (second compound 1 µM, first compound 0.000316 µM): 59.4%; viability, T/C (second compound 1 µM, first compound 0.001 µM): 74.5%; viability, T/C (second compound 1 µM, first compound 0.00316 µM): 106%; viability, T/C (second compound 1 µM, first compound 0.01 µM): 97.2%; viability, T/C (second compound 3.16 µM, first compound 0.000316 µM): 68.9%; viability, T/C (second compound 3.16 µM, first compound 0.001 µM): 98.9%; viability, T/C (second compound 3.16 µM, first compound 0.00316 µM): 106%; viability, T/C (second compound 3.16 µM, first compound 0.01 µM): 69.2%; viability, T/C (second compound 10 µM, first compound 0.000316 µM): 77%; viability, T/C (second compound 10 µM, first compound 0.001 µM): 96.2%; viability, T/C (second compound 10 µM, first compound 0.00316 µM): 69.7%; viability, T/C (second compound 10 µM, first compound 0.01 µM): 45.4%
CC1(C)CCC(CN2CCN(c3ccc(C(=O)NS(=O)(=O)c4ccc(NCC5CCOCC5)c([N+](=O)[O-])c4)c(Oc4cnc5[nH]ccc5c4)c3)CC2)=C(c2ccc(Cl)cc2)C1 + CC(C)NCC(C(=O)N1CCN(c2ncnc3c2C(C)CC3O)CC1)c1ccc(Cl)cc1 | 9.68 | 4.87 | 3.92 | 3.74 | 3.64 | 94.1 | 90.3 | 81.2 | 80.3 | 60.9 | 55.2 | 51.2 | 47.6 | 58.6 | 62.5 | 94.6 | 88.5 | 82.7 | 48.8 | 74.2 | viability, T/C [16]: 64.7%; viability, T/C [17]: 68.7%; viability, T/C [18]: 26.9%; viability, T/C [19]: 55.2%; viability, T/C [20]: 49.5%; viability, T/C [21]: 72.4%; viability, T/C [22]: 12.7%; viability, T/C [23]: 55.5%; viability, T/C [24]: 57.3%; viability, T/C [25]: 73.2%; viability, T/C [26]: 8.99%; viability, T/C [27]: 52.2%; viability, T/C [28]: 51.6%; viability, T/C [29]: 57.4%; viability, T/C [30]: 3.92%
CCCS(=O)(=O)Nc1ccc(F)c(C(=O)c2c[nH]c3ncc(-c4ccc(Cl)cc4)cc23)c1F + CC(C)NCC(C(=O)N1CCN(c2ncnc3c2C(C)CC3O)CC1)c1ccc(Cl)cc1 | 8.04 | > 10 | > 10 | > 10 | > 10 | 99.1 | 102 | 79.5 | 79.2 | 60.1 | 66.3 | 54.2 | 54.8 | 53.5 | 60.5 | 92.5 | 91.1 | 88.1 | 41.4 | 93 | viability, T/C [16]: 92.9%; viability, T/C [17]: 110%; viability, T/C [18]: 56.9%; viability, T/C [19]: 66.7%; viability, T/C [20]: 85.6%; viability, T/C [21]: 139%; viability, T/C [22]: 103%; viability, T/C [23]: 62.6%; viability, T/C [24]: 82.2%; viability, T/C [25]: 126%; viability, T/C [26]: 92%; viability, T/C [27]: 61.5%; viability, T/C [28]: 68.7%; viability, T/C [29]: 98.8%; viability, T/C [30]: 56.1%
